Experimental data reported in paper PMC11677527, “Predicting Pharmacokinetics of Active Constituents in Spatholobi caulis by Using Physiologically Based Pharmacokinetic Models” (Pharmaceuticals, 2024).
Where two headings read alike, the source gives them in different places.

What was measured:
[1] = parameters: method as in PMID 34303214; conditions: rats, p.o. SPC 30 g crude drug/kg; doses of 1-4: 0.062, 0.11, 0.71, 1.31 mg/kg; cited from earlier work
[2] = Verification pharmacokinetic experiment in rats, SPC 60 g crude drug/kg by gavage, UFLC-MS/MS, DAS 2.0; type: in vivo, rat
How it was run: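 Rats received SPC suspension at 60 g crude drug/kg by gavage. Orbital blood was taken at 0.083–12 h into heparin, and plasma 3′-methoxydaidzein, 8-O-methylretusin, daidzin and isolariciresinol were measured by UFLC-MS/MS (C18, MRM, carbamazepine internal standard). PK parameters were calculated from concentration-time curves.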

Caco-2 cell monolayer = tested on: Caco-2 cell monolayer; parameters: method as in PMID 36680806, PMID 26501241; conditions: Caco-2 cell monolayer model; cited from earlier work
[3] = Observed pharmacokinetics in rats after oral SPC (previous study); type: in vivo, rat; conditions: p.o. SPC
[4] = compartment model parameters, DAS 2.0, rats p.o. SPC 60 g crude drug/kg, Mean, 5 rats
[5] = statistical moment parameters, DAS 2.0, rats p.o. SPC 60 g crude drug/kg, Mean, 5 rats
[6] = statistical moment parameters, DAS 2.0, rats p.o. SPC 60 g crude drug/kg, Mean, 5 rats, in µg·h²/mL

COc1cc([C@H]2c3cc(O)c(OC)cc3C[C@@H](CO)[C@@H]2CO)ccc1O [Constituent 4, isolariciresinol]
AUC0→t Obs. [1]: 34.7 ng·h/mL
AUC0→∞ Obs. [1]: 38.3 ng·h/mL
Cmax Obs. [1]: 26.2 ng/mL
Tmax Obs. [1]: 0.31 h
K10 [2, 4]: 7.512 h⁻¹
K12 [2, 4]: 0.448 h⁻¹
K21 [2, 4]: 0.247 h⁻¹
Ka [2, 4]: 5.032 h⁻¹
Tlag [2, 4]: 0 h
V1/F [2, 4]: 29.573 L/kg
t1/2Ka [2, 4]: 0.175 h
t1/2α [2, 4]: 0.433 h
concentration at 0.083 h ([2]; rat, plasma, oral, time 0.083 h, rats p.o. SPC 60 g crude drug/kg, doses of 1-4: 0.124, 0.22, 1.4, 2.62 mg/kg, 5 rats): 15.4 ng/mL
concentration at 0.25 h ([2]; rat, plasma, oral, time 0.25 h, rats p.o. SPC 60 g crude drug/kg, doses of 1-4: 0.124, 0.22, 1.4, 2.62 mg/kg, 5 rats): 41.5 ng/mL
concentration at 0.5 h ([2]; rat, plasma, oral, time 0.5 h, rats p.o. SPC 60 g crude drug/kg, doses of 1-4: 0.124, 0.22, 1.4, 2.62 mg/kg, 5 rats): 41.7 ng/mL
concentration at 0.75 h ([2]; rat, plasma, oral, time 0.75 h, rats p.o. SPC 60 g crude drug/kg, doses of 1-4: 0.124, 0.22, 1.4, 2.62 mg/kg, 5 rats): 27.6 ng/mL
concentration at 1 h ([2]; rat, plasma, oral, time 1 h, rats p.o. SPC 60 g crude drug/kg, doses of 1-4: 0.124, 0.22, 1.4, 2.62 mg/kg, 5 rats): 22.2 ng/mL
concentration at 1.5 h ([2]; rat, plasma, oral, time 1.5 h, rats p.o. SPC 60 g crude drug/kg, doses of 1-4: 0.124, 0.22, 1.4, 2.62 mg/kg, 5 rats): 8.29 ng/mL
concentration at 2 h ([2]; rat, plasma, oral, time 2 h, rats p.o. SPC 60 g crude drug/kg, doses of 1-4: 0.124, 0.22, 1.4, 2.62 mg/kg, 5 rats): 7.03 ng/mL
concentration at 3 h ([2]; rat, plasma, oral, time 3 h, rats p.o. SPC 60 g crude drug/kg, doses of 1-4: 0.124, 0.22, 1.4, 2.62 mg/kg, 5 rats): 4.27 ng/mL
concentration at 4 h ([2]; rat, plasma, oral, time 4 h, rats p.o. SPC 60 g crude drug/kg, doses of 1-4: 0.124, 0.22, 1.4, 2.62 mg/kg, 5 rats): 3.41 ng/mL
concentration at 6 h ([2]; rat, plasma, oral, time 6 h, rats p.o. SPC 60 g crude drug/kg, doses of 1-4: 0.124, 0.22, 1.4, 2.62 mg/kg, 5 rats): 2.01 ng/mL
AUC(0-t) ([2]; rat, plasma, po, 2.62 mg/kg, compartment model parameters, DAS 2.0, rats p.o. SPC 60 g crude drug/kg, Mean, 5 rats, read-out: AUC(0-t)): 46.4 ng·h/mL
AUC(0-inf) ([2]; rat, plasma, po, 2.62 mg/kg, compartment model parameters, DAS 2.0, rats p.o. SPC 60 g crude drug/kg, Mean, 5 rats, read-out: AUC(0-∞)): 52.8 ng·h/mL
CL/F ([2]; rat, plasma, po, 2.62 mg/kg, compartment model parameters, DAS 2.0, rats p.o. SPC 60 g crude drug/kg, Mean, 5 rats, read-out: CL/F (converted)): 1660 mL/min/kg
half-life ([2]; rat, plasma, po, 2.62 mg/kg, compartment model parameters, DAS 2.0, rats p.o. SPC 60 g crude drug/kg, Mean, 5 rats, read-out: t1/2β (converted)): 17.4 h
AUC(0-t) ([2]; rat, plasma, po, 2.62 mg/kg, rats, p.o. SPC 60 g crude drug/kg, doses of 1-4: 0.124, 0.22, 1.42, 2.62 mg/kg, n = 5, read-out: AUC0→t Val.): 55.7 ng·h/mL
AUC(0-inf) ([2]; rat, plasma, po, 2.62 mg/kg, rats, p.o. SPC 60 g crude drug/kg, doses of 1-4: 0.124, 0.22, 1.42, 2.62 mg/kg, n = 5, read-out: AUC0→∞ Val.): 59.3 ng·h/mL
Cmax ([2]; rat, plasma, po, 2.62 mg/kg, rats, p.o. SPC 60 g crude drug/kg, doses of 1-4: 0.124, 0.22, 1.42, 2.62 mg/kg, n = 5, read-out: Cmax Val.): 41.7 ng/mL
AUC(0-t) ([2]; rat, plasma, po, 2.62 mg/kg, statistical moment parameters, DAS 2.0, rats p.o. SPC 60 g crude drug/kg, Mean, 5 rats, read-out: AUC(0-t)): 55.7 ng·h/mL
AUC(0-inf) ([2]; rat, plasma, po, 2.62 mg/kg, statistical moment parameters, DAS 2.0, rats p.o. SPC 60 g crude drug/kg, Mean, 5 rats, read-out: AUC(0-∞)): 59.3 ng·h/mL
CL/F ([2]; rat, plasma, po, 2.62 mg/kg, statistical moment parameters, DAS 2.0, rats p.o. SPC 60 g crude drug/kg, Mean, 5 rats, read-out: CLz/F (converted)): 738 mL/min/kg
Cmax ([2]; rat, plasma, po, 2.62 mg/kg, statistical moment parameters, DAS 2.0, rats p.o. SPC 60 g crude drug/kg, Mean, 5 rats, read-out: Cmax): 41.7 ng/mL
MRT last ([2]; rat, plasma, po, 2.62 mg/kg, statistical moment parameters, DAS 2.0, rats p.o. SPC 60 g crude drug/kg, Mean, 5 rats, read-out: MRT(0-t)): 1.48 h
MRT inf ([2]; rat, plasma, po, 2.62 mg/kg, statistical moment parameters, DAS 2.0, rats p.o. SPC 60 g crude drug/kg, Mean, 5 rats, read-out: MRT(0-∞)): 2.08 h
Tmax ([2]; rat, plasma, po, 2.62 mg/kg, statistical moment parameters, DAS 2.0, rats p.o. SPC 60 g crude drug/kg, Mean, 5 rats, read-out: Tmax): 0.3 h
Vd/F ([2]; rat, plasma, po, 2.62 mg/kg, statistical moment parameters, DAS 2.0, rats p.o. SPC 60 g crude drug/kg, Mean, 5 rats, read-out: Vz/F): 111 L/kg
half-life ([2]; rat, plasma, po, 2.62 mg/kg, statistical moment parameters, DAS 2.0, rats p.o. SPC 60 g crude drug/kg, Mean, 5 rats, read-out: t1/2z (converted)): 1.73 h
Cz [2, 5]: 1.39 µg/L
VRT(0-t) [2, 5]: 2.067 h^2
VRT(0-∞) [2, 5]: 6.027 h^2
elimination rate constant [2, 5]: 0.412 h⁻¹
AUMC(0-t) [2, 6]: 82.484
AUMC(0-∞) [2, 6]: 123.911
Papp (Caco-2 cell monolayer): 2.2 ×10⁻⁶ cm/s
time of slight secondary absorption peak [3]: 6 h
